Test results as given in the supplement of paper PMC10307832.

Compound: Cn1cc(-c2cnn3c(N)c(Br)c([C@@H]4CCCNC4)nc23)cn1 + COc1cc2c(Oc3ccc(NC(=O)C4(C(=O)Nc5ccc(F)cc5)CC4)cc3F)ccnc2cc1OCCCN1CCOCC1 [Foretinib] (partner 0.25 µM)
Assay: relative viability (nuclei count vs DMSO), 5 days (fraction); higher = more cells survive
How it was run: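 Lung cancer cell lines were seeded in 1536-well plates and dosed by pin tool the next day, with either a single drug or a fixed anchor-drug dose combined with five library-drug doses (not always all listed) spaced in √10 steps. Five days later, one step fixed the cells and stained their nuclei (final 0.05% Triton X-100, 1% formaldehyde, 1 ug/ml Hoechst), and nuclei were counted on 4× images. Relative viability is the nuclei count in treated wells divided by the count in vehicle wells, and each value is the median of duplicate plates.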

Row | Cell Line | relative viability (first compound 0.05 µM) | relative viability (first compound 0.1581 µM) | relative viability (first compound 0.5 µM) | relative viability (first compound 1.581 µM) | relative viability (first compound 5 µM)
1 | LCLC-97TM1 | 0.862 | 1 | 0.93 | 0.909 | 0.956
2 | HARA | 1.07 | 1.05 | 0.706 | 0.798 | 0.207
3 | HCC-78 |  | 0.666 | 0.561 | 0.535 | 0.576
4 | NCI-H1666 | 0.936 | 1.05 | 0.888 | 1.05 | 0.919
5 | NCI-H2347 | 0.789 | 0.877 | 0.815 | 0.593 | 0.724
6 | NCI-H838 | 1.1 | 1.2 | 1.01 | 1.11 | 0.965
7 | NCI-H2023 | 0.785 | 0.604 | 0.688 | 0.201 | 0.178
8 | 201T | 0.999 | 0.952 | 1.26 | 0.554 | 0.265
9 | NCI-H1915 | 1.18 | 1.15 | 1.09 | 1.15 | 1.09
10 | NCI-H2009 | 1.24 | 1.32 | 1.05 | 1.16 | 1.14
11 | BEN | 0.689 | 0.535 | 0.563 | 0.763 | 0.514
12 | PC-14 | 0.974 | 1.04 | 0.933 | 0.903 | 0.53
13 | SK-MES-1 | 0.909 | 1.04 | 0.946 | 0.867 | 0.566
14 | NCI-H727 | 0.949 | 0.905 | 0.967 | 0.882 | 0.527
15 | NCI-H1355 | 1.05 | 1.21 | 0.967 | 0.89 | 0.955
16 | NCI-H1975 | 0.965 | 0.995 | 0.738 | 0.807 | 0.884
17 | LK-2 | 1.18 | 1.27 | 0.887 |  | 0.901
18 | NCI-H661 | 1.05 | 0.991 | 0.979 | 1.02 | 0.932
19 | HCC-366 | 0.967 | 0.887 | 0.93 | 0.855 | 0.865
20 | HOP-62 | 1.17 | 1.16 | 1.06 | 1 | 0.985
21 | NCI-H1944 | 0.895 | 0.953 | 0.834 | 0.799 | 0.689
22 | SW 1573 | 0.97 | 1.09 | 0.865 | 0.848 | 1.01
23 | LU99A | 0.805 | 0.768 | 0.821 | 0.706 | 0.716
24 | NCI-H647 | 1.17 | 1.27 | 1.25 | 1.01 | 0.416
25 | A-427 | 1.05 | 1.11 | 1.01 | 1.09 | 0.712

Row | Cell Line | relative viability (first compound 0.05 µM) | relative viability (first compound 0.1581 µM) | relative viability (first compound 0.5 µM) | relative viability (first compound 1.581 µM) | relative viability (first compound 5 µM)
26 | COR-L 105 | 0.83 | 0.995 | 0.994 | 0.782 | 1.46
27 | NCI-H441 | 0.99 | 1.38 | 1.13 | 0.957 | 0.725
28 | NCI-H2126 | 1.2 | 1.3 | 1.11 | 1.02 | 1.53
29 | EBC-1 | 0.107 | 0.0968 | 0.0834 | 0.0926 | 0.0939
30 | NCI-H460 | 0.957 | 1.08 | 1.03 | 0.914 | 0.666
31 | SK-LU-1 | 0.819 | 0.709 | 0.485 | 0.28 | 0.211
32 | NCI-H322M | 0.91 | 0.62 | 0.854 | 0.563 | 0.297
33 | EKVX | 0.749 | 0.925 | 0.699 | 0.816 | 0.469
34 | NCI-H1734 | 0.918 | 1.01 | 0.908 | 0.799 | 0.694
35 | SW 900 | 0.828 | 0.817 | 0.78 | 0.768 | 0.39
36 | ABC-1 | 0.951 | 1.07 | 1.02 | 0.872 | 0.4
37 | NCI-H520 | 0.671 | 0.836 | 0.751 | 0.664 | 0.58
38 | EPLC-272H | 0.794 | 0.723 | 0.603 | 0.514 | 0.25
39 | UMC-11 | 1 | 0.984 | 0.851 | 0.773 | 0.51
40 | NCI-H1993 | 0.747 | 0.806 | 0.483 | 0.667 | 0.657
41 | NCI-H596 | 0.871 | 0.797 | 0.778 | 0.83 | 0.674
42 | NCI-H1793 | 0.71 | 0.806 | 0.63 | 0.683 | 0.518
43 | NCI-H1563 | 0.939 | 1.02 | 0.841 | 0.921 | 0.875
44 | NCI-H1395 | 0.99 | 0.94 | 0.914 | 0.589 | 0.455
45 | NCI-H1299 | 1.08 | 1.14 | 1.12 | 0.988 | 0.833
46 | HCC-827 | 1.09 | 1.11 | 1.06 | 1.02 | 1.02
47 | ChaGo-K-1 | 0.937 | 0.934 | 0.873 | 0.888 | 0.78
48 | NCI-H2228 | 0.747 | 0.942 | 0.671 | 0.738 | 0.433
49 | NCI-H2170 | 1.02 | 0.934 | 0.963 | 1.02 | 1.1
50 | EMC-BAC-2 | 1 | 1.11 | 1.02 | 0.977 | 0.926

Row | Cell Line | relative viability (first compound 0.05 µM) | relative viability (first compound 0.1581 µM) | relative viability (first compound 0.5 µM) | relative viability (first compound 1.581 µM) | relative viability (first compound 5 µM)
51 | A549 | 1.03 | 1.2 | 0.93 | 0.664 | 0.711
52 | NCI-H23 | 1.02 | 0.987 | 0.907 | 0.615 | 0.53
53 | RERF-LC-KJ | 0.98 | 0.881 | 0.865 | 0.727 | 0.86
54 | NCI-H358 | 0.685 | 0.768 | 0.654 | 0.59 | 0.628
55 | LC-2-ad | 0.878 | 0.999 | 1.09 | 0.938 | 0.908
56 | HCC-15 | 1.09 | 1.09 | 1.05 | 0.941 | 1
57 | NCI-H2405 | 0.978 | 0.952 | 1.05 | 0.989 | 0.919
58 | LXF-289 | 0.996 | 1.02 | 1 | 0.94 | 1.03
59 | CAL-12T | 1.17 | 1.08 | 0.965 | 0.789 | 0.228
60 | COR-L23 | 1.07 | 1.13 | 1.08 | 0.907 | 0.439
61 | NCI-H1755 | 0.997 | 0.943 | 0.91 | 0.95 | 0.821
62 | NCI-H1437 | 1.24 | 1.4 | 1.41 | 1.32 | 1.19
63 | NCI-H2085 | 0.917 | 0.944 | 0.986 | 0.894 | 0.625
64 | IA-LM | 1.19 | 1.23 | 1.06 | 0.861 | 0.54
65 | H3255 | 0.843 | 0.998 | 0.998 | 0.971 | 0.83
66 | NCI-H650 | 1.14 | 1.03 | 1.02 | 1 | 0.881
67 | LCLC-103H | 0.72 | 0.848 | 0.746 | 0.674 | 0.657
68 | LOU-NH91 | 0.928 | 0.879 | 0.91 | 0.926 | 0.781
69 | NCI-H1650 |  | 1.3 | 1.2 | 1.05 | 0.658
70 | NCI-H3122 | 0.977 | 1.02 | 0.92 | 0.992 | 0.977
71 | PC-3 [JPC-3] | 1.02 | 1.2 | 0.997 | 1.03 | 1.06
72 | Calu-6 | 0.879 | 0.876 | 0.758 | 0.319 | 0.134
73 | NCI-H1651 | 0.828 | 1 | 0.887 | 0.496 | 0.213
74 | NCI-H2087 | 1.18 | 1.22 | 0.989 | 1.32 | 1
